One experiment concerns NALM-6. Briefly: MTT cytotoxicity assay, NALM-6. It counts as cell-based, human. The conditions noted are these: 48 h, read-out: IC50 against NALM-6. As for the experimental part: (§1) Human B-lineage acute lymphoblastic leukemia (ALL) cell line NALM-6 and T-lineage ALL/lymphoma cell line MOLT-3 were obtained from American Type Culture Collection (Manassas, Va.). Cell lines were propagated in RPMI 1640 supplemented with 10% FCS, 4 mM glutamine, 100 units/ml penicillin G, and […] streptomycin sulfate. All tissue culture reagents were obtained from Life Technologies Inc. (Life Technologies, Inc., Gaithersburg, Md.). Cell lines were cultivated for a minimum of two passages after thawing prior to experimentation.
(§2) The cytotoxicity of the compounds were tested against human ALL cell lines using MTT assays (Roche Molecular Biochemicals, Indianapolis, Ind.), as described previously R. K. Narla et al., 1998, Clin Cancer Res 4:1405-14). Briefly, exponentially growing tumor cells were seeded into a 96-well plate at a density of 4×10^4 cells/well and incubated in medium containing the cinchona alkaloid compounds at concentrations ranging from 0.7 to 100 μM for 48 h at 37° C. in a humidified 5% CO2 atmosphere. To each well, 10 μL of MTT (final concentration, 0.5 mg/ml) was added, and the plates were incubated at 37° C. for 4 h to allow MTT to form formazan crystals by reacting with metabolically active cells. The formazan crystals were solubilized overnight at 37° C. in a solution containing 10% SDS and 0.01 M HCl. The absorbance of each well was measured in a microplate reader (Labsystems) at 540 nm and a reference wavelength of 690 nm. To translate the A540 values into the number of live cells in each well, the A540 values were compared to those on standard A540 versus cell number curves generated for each cell line. The percentage of survival was calculated using the formula: % survival=[Live cell number (test)/Live cell number (control)]×100. The IC50 values were calculated by nonlinear regression analysis using the graphed Prism Software version 2.0 (GraphPad Software, Inc., San Diego, Calif.).
On the technique in general: Tetrazolium assays rely on reduction of a dye to a coloured formazan, in cell work by metabolically active cells.

Another experiment concerns MOLT-3. In words: MTT cytotoxicity assay, MOLT-3. Particulars: 48 h, read-out: IC50 against MOLT-3. It is filed as cell-based, human. How it is done:
as §1, §2

In experiment [1] the test system is Lewis Lung Carcinoma Cells (LL2). In words: Syngeneic mouse model of K-Ras mutant NSCLC. It is filed as in vivo. How it is done:
Lewis Lung Carcinoma Cells (LL2) were purchased from ATCC. These murine NSCLC cells derived from C57BL/6 mice have a heterozygous Kras^G12C mutation (H. Y. Li et al., 2017, Cancer Immunol. Res. 5:767-77; B. Deskin et al., 2020, Translational Oncol. 13:135-45). Eight-9 weeks old, male C57/BL6 mice were inoculated with 1×10^6 LL2 cells in 200 μL PBS that were injected subcutaneously in the right flank. Treatments were initiated immediately after inoculation with LL/2 cells. Control mice were treated with intraperitoneal injections of 50 μL vehicle (DMSO), whereas test mice were treated with either AP-1 or AP-8 at the specified dose levels. Treatments were administered twice daily, 5 days per week for a total of 2 weeks. The clinical predictive value of this mouse model is well established (Kellar A, Egan C, Morris D. Preclinical Murine Models for Lung Cancer: Clinical Trial Applications. Biomed Research International Volume 2015|Article ID 621324|https://doi.org/10.1155/2015/621324).
In the 1st experiment, mice were treated twice daily with intraperitoneal injections of vehicle (50 μL DMSO) (N=10) or AP-1 (125 μg˜5 mg/kg in 50 μL DMSO) (N=7) according to a 5 days on 2 days off weekly schedule for 4 weeks. Mice were monitored daily until tumors became visible on and tumor growth rates were compared between day 16 and day 20 by measuring the size of the tumors with a caliper in three dimensions. Tumor size was expressed as tumor volume in cubic millimeters (mm3). Tumor volumes were calculated using the formula for the volume of a prolate spheroid, V=4/3×3.14×length/2×width/2×depth/2. […] The depicted Whisker plots represent the median and values (Min to Max. Shown all points) for the tumor volume on day 16 (FIG. 11A), day 18 (FIG. 11 FIG. 11B) and day 20 (C), and fold-growth in 48 hours (FIG. 11D; day 18 size: day 16 size) measured in tumors from mice in each group. […] Statistical significance between the two groups is shown by the depicted p-values above the plots were computed using an independent samples T-test.
Similarly, in the 2nd experiment, C57BL/6 mice were inoculated subcutaneously with LL2 cells (1×10^6/inoculum, volume: 200 μL) in the right flank. Mice were treated twice daily with intraperitoneal injections of vehicle (50 μL DMSO) (N=10) or AP-1 (100 μg˜4 mg/kg in 50 μL DMSO) (N=20) according to a 5 days on 2 days off weekly schedule for 2 weeks. Mice were monitored daily until tumors became visible on day 10. Tumor growth was assessed on day 10 and day 14 by measuring the size of the tumors with a caliper in three dimensions. Tumor size was expressed as tumor volume in cubic millimeters (mm^3). Tumor volumes were calculated using the formula for the volume of a prolate spheroid, V=4/3×3.14×length/2×width/2×depth/2. […]
In the 3rd experiment, mice were treated twice daily with intraperitoneal injections of vehicle (50 μL DMSO) (N=10) or AP-1 (125 μg˜5 mg/kg in 50 μL DMSO) (N=18) according to a 5 days on 2 days off weekly schedule for 4 weeks. Mice were monitored daily until tumors became visible on day 13. Tumor growth was re-assessed every other day between day 13 and day 29 by measuring the size of the tumors with a caliper in three dimensions. Tumor size was expressed as tumor volume in cubic millimeters (mm^3). Tumor volumes were calculated using the formula for the volume of a prolate spheroid, V=4/3×3.14×length/2×width/2×depth/2. […]

Regarding “2,4,6-Tri (9-O-dihydrocinchoninyl)pyrimidine [AP-5]”, the IC50 (as a rule, the midpoint of a concentration-inhibition curve) in the experiment on NALM-6 turned out to be 1.7 µM.

On to `C=CC1CN2CCC1CC2C(Oc1cc(OC(c2ccnc3ccccc23)C2CC3CCN2CC3C=C)nc(OC(c2ccnc3ccccc23)C2CC3CCN2CC3C=C)n1)c1ccnc2ccccc12` (stereo not shown) [AP-1, 2,4,6-Tri(9-O-cinchoninyl)pyrimidine], for which the IC50 in the experiment with NALM-6 came to 3.4 µM; in the experiment with MOLT-3, 6.7 µM. Besides, the “fold-growth in 48 hours (day 18 size: day 16 size)” value in experiment [1] (1st experiment, 5 mg/kg i.p. twice daily) is recorded as “significantly reduced the rapid growth rate of the LL2 tumors”. Moreover, the “average tumor volume versus vehicle” value in experiment [1] (1st experiment, 5 mg/kg i.p. twice daily, day 16 to day 20) is given as “remained significantly smaller than the average tumor volume in vehicle-treated control mice”; in experiment [1] (2nd experiment, 4 mg/kg i.p. twice daily, day 10 and day 14), “remained significantly smaller than the average tumor volume in vehicle-treated control mice”; in experiment [1] (3rd experiment, 5 mg/kg i.p. twice daily, day 13 to day 29), “remained significantly smaller than the average tumor volume in vehicle-treated control mice”.

Consider `CCC1CN2CCC1CC2C(Oc1cc(OC(c2ccnc3ccc(OC)cc23)C2CC3CCN2CC3CC)nc(OC(c2ccnc3ccc(OC)cc23)C2CC3CCN2CC3CC)n1)c1ccnc2ccc(OC)cc12` (stereo not shown) [AP-8, 2,4,6-Tri (9-O-dihydroquinidinyl)pyrimidine], for which the figures for the IC50 in the experiment with NALM-6 and in the experiment on MOLT-3 were 3.7 µM and 5.2 µM, respectively. In addition, the “average tumor volume versus vehicle” value in experiment [1] (2 mg/kg i.p. twice daily, day 14 to day 25) is reported as “remained significantly smaller than the average tumor volume in vehicle-treated control mice”.

These data come from patent US11066421B1, “Synthetic cinchona alkaloids against cancer” (Ares Pharmaceuticals, LLC, priority 2021, dated 2021).
